Results taken from US20190161736A1, “CELL CULTURE” (National University of Singapore, priority 2016, published 2019).
Where two headings read alike, the source gives them in different places.

Assays:
[1] = test system: clinical human primary cancer cells cultured from blood samples (CD45- cells); test: Microwell-based CTC cluster assay, doxorubicin screening on clusters cultured from breast cancer patient blood samples; details: for IC50 / viability at 1 µM: Homo sapiens; for IC50: 72 hrs exposure; for viability at 1 µM: 72 hrs
MCF-7 monolayer cultures = details: monolayer cultures with lower cell counts, <10k cells per ml; read-out: IC50 value (previous studies); cited from earlier work
[2] = test system: MCF-7 breast cancer cell line clusters; test: Microwell-based CTC cluster assay, doxorubicin screening on MCF-7 clusters (live/dead staining); assay type: cell-based; details: Homo sapiens, MCF7, normoxia, 72 hrs exposure from Day 3, viability by Calcein-AM/EtBr
Experimental: Cell Culture of MCF-7 Cancer Cell Line MCF-7 (HTB-22TM, ATCC, USA), a human breast adenocarcinoma cell line, was first used to mimic CTC cluster formation. Cell lines were maintained in supplemented high-glucose Dulbecco's modified Eagle's medium (DMEM) (Invitrogen, USA) with 10% fetal bovine serum (FBS) (Invitrogen, USA) together with 1% penicillin-streptomycin (Invitrogen, USA). Cultures were kept at 37° C. in a humidified atmosphere containing 5% (v/v) CO2 till 80% confluence. Cells were cultured in sterile 25 cm^2 flasks (BD Bioscience, USA) and sub-cultivated two times a week with media replaced every 48 h. Sub-confluent monolayers were dissociated using 0.01% otrypsin and 5.3 mM EDTA solution (Lonza, Switzerland).
The closed system was then incubated at 37° C., 5% CO2 till drug treatment at Day 3 or Day 11 for MCF-7 cultures and clinical sample cultures respectively.
A stock solution was prepared in 100% DMSO and subsequently was diluted in supplemented DMEM (1 μl to 1 ml of media), resulting in ˜0.1% of DMSO concentration (1 μM drug concentration), which has negligible effects on cells.
To establish the IC50 values, z-stacks images of 25 microwells from each channel were obtained with a confocal microscope.

For `COc1cccc2c1C(=O)c1c(O)c3c(c(O)c1C2=O)C[C@@](O)(C(=O)CO)C[C@@H]3O[C@H]1C[C@H](N)[C@H](O)[C@H](C)O1` [doxorubicin, Doxorubicin], the IC50 ([1]; 72 h, read-out: IC50 value, sample CES021, Post treatment) was > 1000 nM, the IC50 ([1]; 72 h, read-out: IC50 value, sample CES053, Post treatment) was 340 nM and the IC50 ([1]; 72 h, read-out: IC50 value, sample P2B28, Post treatment) was > 1000 nM. For the same compound, the IC50 ([1]; 72 h, read-out: IC50 value, sample P2B29, Post treatment) was 860 nM, the viability at 1 µM ([1]; 72 h, read-out: Percentage of viable CD45-cells, CES21 Post-treatment, 1.6% of drug (1 μM)) was 96.4% and the viability at 1 µM ([1]; 72 h, read-out: Percentage of viable CD45-cells, CES21 Post-treatment, 10.9% of drug (1 μM)) was 94.9%. It also gave a viability at 1 µM ([1]; 72 h, read-out: Percentage of viable CD45-cells, CES21 Post-treatment, 34.4% of drug (1 μM)) of 92%, a viability at 1 µM ([1]; 72 h, read-out: Percentage of viable CD45-cells, CES21 Post-treatment, 65.6% of drug (1 μM)) of 78.6% and a viability at 1 µM ([1]; 72 h, read-out: Percentage of viable CD45-cells, CES21 Post-treatment, 89.1% of drug (1 μM)) of 71.1%. For the same compound, the viability at 1 µM ([1]; 72 h, read-out: Percentage of viable CD45-cells, CES21 Post-treatment, 98.4% of drug (1 μM)) was 66.9%, the viability at 1 µM ([1]; 72 h, read-out: Percentage of viable CD45-cells, CES21 Post-treatment, 100.0% of drug (1 μM)) was 67.9% and the viability at 1 µM ([1]; 72 h, read-out: Percentage of viable CD45-cells, CES053 Post-treatment, 1.6% of drug (1 μM)) was 51.7%. The viability at 1 µM ([1]; 72 h, read-out: Percentage of viable CD45-cells, CES053 Post-treatment, 10.9% of drug (1 μM)) was 51.4%, the viability at 1 µM ([1]; 72 h, read-out: Percentage of viable CD45-cells, CES053 Post-treatment, 34.4% of drug (1 μM)) was 48% and the viability at 1 µM ([1]; 72 h, read-out: Percentage of viable CD45-cells, CES053 Post-treatment, 65.6% of drug (1 μM)) was 52.2%. For the same compound, the viability at 1 µM ([1]; 72 h, read-out: Percentage of viable CD45-cells, CES053 Post-treatment, 89.1% of drug (1 μM)) was 42.8%, the viability at 1 µM ([1]; 72 h, read-out: Percentage of viable CD45-cells, CES053 Post-treatment, 98.4% of drug (1 μM)) was 41% and the viability at 1 µM ([1]; 72 h, read-out: Percentage of viable CD45-cells, CES053 Post-treatment, 100.0% of drug (1 μM)) was 39.8%. The viability at 1 µM ([1]; 72 h, read-out: Percentage of viable CD45-cells, P2B28 Post-treatment, 1.6% of drug (1 μM)) was 39.3%, the viability at 1 µM ([1]; 72 h, read-out: Percentage of viable CD45-cells, P2B28 Post-treatment, 10.9% of drug (1 μM)) was 32.6% and the viability at 1 µM ([1]; 72 h, read-out: Percentage of viable CD45-cells, P2B28 Post-treatment, 34.4% of drug (1 μM)) was 39.2%. The viability at 1 µM ([1]; 72 h, read-out: Percentage of viable CD45-cells, P2B28 Post-treatment, 65.6% of drug (1 μM)) was 28.8%, the viability at 1 µM ([1]; 72 h, read-out: Percentage of viable CD45-cells, P2B28 Post-treatment, 89.1% of drug (1 μM)) was 27.6% and the viability at 1 µM ([1]; 72 h, read-out: Percentage of viable CD45-cells, P2B28 Post-treatment, 98.4% of drug (1 μM)) was 24.4%. It also gave a viability at 1 µM ([1]; 72 h, read-out: Percentage of viable CD45-cells, P2B28 Post-treatment, 100.0% of drug (1 μM)) of 0%, a viability at 1 µM ([1]; 72 h, read-out: Percentage of viable CD45-cells, P2B29 Post-treatment, 1.6% of drug (1 μM)) of 73.6% and a viability at 1 µM ([1]; 72 h, read-out: Percentage of viable CD45-cells, P2B29 Post-treatment, 10.9% of drug (1 μM)) of 56.2%. The viability at 1 µM ([1]; 72 h, read-out: Percentage of viable CD45-cells, P2B29 Post-treatment, 34.4% of drug (1 μM)) was 18.5%, the viability at 1 µM ([1]; 72 h, read-out: Percentage of viable CD45-cells, P2B29 Post-treatment, 65.6% of drug (1 μM)) was 7.7% and the viability at 1 µM ([1]; 72 h, read-out: Percentage of viable CD45-cells, P2B29 Post-treatment, 89.1% of drug (1 μM)) was 4.1%. The viability at 1 µM ([1]; 72 h, read-out: Percentage of viable CD45-cells, P2B29 Post-treatment, 98.4% of drug (1 μM)) was 1.1%, the viability at 1 µM ([1]; 72 h, read-out: Percentage of viable CD45-cells, P2B29 Post-treatment, 100.0% of drug (1 μM)) was 0.4% and the IC50 ([1]; read-out: IC50 value, sample CTB039, Pre-treatment) was 850 nM. The IC50 ([1]; read-out: IC50 value, sample P2B29, Pre-treatment) was 940 ± 40 nM, the viability at 1 µM ([1]; read-out: Percentage of viable CD45-cells, CTB039 Pre-treatment, 1.6% of drug (1 μM)) was 85.5% and the viability at 1 µM ([1]; read-out: Percentage of viable CD45-cells, CTB039 Pre-treatment, 10.9% of drug (1 μM)) was 81.6%. It also gave a viability at 1 µM ([1]; read-out: Percentage of viable CD45-cells, CTB039 Pre-treatment, 34.4% of drug (1 μM)) of 69.7%, a viability at 1 µM ([1]; read-out: Percentage of viable CD45-cells, CTB039 Pre-treatment, 65.6% of drug (1 μM)) of 58.3% and a viability at 1 µM ([1]; read-out: Percentage of viable CD45-cells, CTB039 Pre-treatment, 89.1% of drug (1 μM)) of 48.3%. For the same compound, the viability at 1 µM ([1]; read-out: Percentage of viable CD45-cells, CTB039 Pre-treatment, 98.4% of drug (1 μM)) was 44.2%, the viability at 1 µM ([1]; read-out: Percentage of viable CD45-cells, CTB039 Pre-treatment, 100.0% of drug (1 μM)) was 40.8% and the viability at 1 µM ([1]; read-out: Percentage of viable CD45-cells, P2B29 Pre-treatment, 1.6% of drug (1 μM)) was 96.6%. The viability at 1 µM ([1]; read-out: Percentage of viable CD45-cells, P2B29 Pre-treatment, 10.9% of drug (1 μM)) was 86.4%, the viability at 1 µM ([1]; read-out: Percentage of viable CD45-cells, P2B29 Pre-treatment, 34.4% of drug (1 μM)) was 26.2% and the viability at 1 µM ([1]; read-out: Percentage of viable CD45-cells, P2B29 Pre-treatment, 65.6% of drug (1 μM)) was 3.9%. For the same compound, the viability at 1 µM ([1]; read-out: Percentage of viable CD45-cells, P2B29 Pre-treatment, 89.1% of drug (1 μM)) was 2.6%, the viability at 1 µM ([1]; read-out: Percentage of viable CD45-cells, P2B29 Pre-treatment, 98.4% of drug (1 μM)) was 0.7% and the viability at 1 µM ([1]; read-out: Percentage of viable CD45-cells, P2B29 Pre-treatment, 100.0% of drug (1 μM)) was 0.4%. For the same compound, the “average correlation coefficient, percentage of microwells with cluster vs concentration of doxorubicin” value ([1]; clinical sample cultures, FIG. 15A) was −0.71, the “proportion of microwells with presence of macrophage-like cells vs drug concentration” value ([1]; clinical sample cultures, FIG. 15B) was “did not seem to correlate with drug concentration” and the IC50 (MCF-7 monolayer cultures) was ~500 nM. The IC50 [2] was 780 ± 20 nM.
